Values quoted from earlier work as cited in article PMC2737817 (Bioorganic & medicinal chemistry letters, 2009).

What was measured:
GPI/LMMP = settings: read-out: Functional Bioactivity GPI (IC50); ± S.E.M.; ref [42]; SEM
MVD = settings: read-out: Functional Bioactivity MVD (IC50); ± S.E.M.; ref [42]; SEM

Substance | IC50 (GPI/LMMP) | IC50 (MVD)
Tyr-Pro-Phe-Phe-NH2 [EM-2] | 15 ± 2 nM | 
Tyr-Pro-Trp-Phe-NH2 [EM-1] | 28 ± 3 nM | 1710 ± 110 nM
